Source: patent US20200087248A1, “Fluoroallylamine Derivative And Use Thereof” (SICHUAN KELUN-BIOTECH BIOPHARMACEUTICAL CO., LTD., priority 2017, published 2020)
Where a name gives a salt, the structure may show the parent alone.

Tests used:
[1] = molecular target: T1, VAP-1 (Homo sapiens, UniProt Q16853); experiment: Inhibition of the enzymatic activity of VAP-1 in vitro (Amplex Red); assay type: biochemical; settings: VAP-1 protein about 20 nM, 10 min pre-incubation, benzylamine substrate; read-out: IC50, inhibition against the enzymatic activity of VAP-1
T1 construct: purchased R&D Systems
T1 sequence (Q16853 1-763): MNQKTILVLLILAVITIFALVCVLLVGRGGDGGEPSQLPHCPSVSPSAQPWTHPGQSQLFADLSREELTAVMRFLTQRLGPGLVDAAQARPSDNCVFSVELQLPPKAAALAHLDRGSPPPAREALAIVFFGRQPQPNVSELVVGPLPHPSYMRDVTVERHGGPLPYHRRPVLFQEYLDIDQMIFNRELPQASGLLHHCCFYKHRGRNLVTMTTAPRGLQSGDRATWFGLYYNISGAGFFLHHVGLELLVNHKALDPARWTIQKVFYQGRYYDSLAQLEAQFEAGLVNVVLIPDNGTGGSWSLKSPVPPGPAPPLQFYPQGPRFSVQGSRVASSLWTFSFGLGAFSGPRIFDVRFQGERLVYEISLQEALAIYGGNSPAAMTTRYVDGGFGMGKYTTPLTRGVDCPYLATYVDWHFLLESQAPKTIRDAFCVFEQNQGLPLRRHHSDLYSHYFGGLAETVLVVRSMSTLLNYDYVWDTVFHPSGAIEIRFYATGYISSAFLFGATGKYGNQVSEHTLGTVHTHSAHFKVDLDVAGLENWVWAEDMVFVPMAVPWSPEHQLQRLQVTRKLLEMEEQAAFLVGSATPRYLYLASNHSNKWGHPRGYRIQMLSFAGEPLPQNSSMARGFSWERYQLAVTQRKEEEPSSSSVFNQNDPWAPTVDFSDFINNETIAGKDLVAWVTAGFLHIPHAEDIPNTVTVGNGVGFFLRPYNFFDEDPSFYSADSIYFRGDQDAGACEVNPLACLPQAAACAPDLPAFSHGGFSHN
Summary of the method: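 About 20 nM recombinant VAP-1 preincubated with compound 10 min at RT in 50 mM PBS pH 7.4; reaction started with […] benzylamine, 1 U/mL HRP and 200 μM Amplex Red. Kinetic fluorescence (Ex/Em 540/590 nm) slope gave rate; IC50 by four-parameter fit.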

[2] = molecular target: T2, MAO-A (Homo sapiens, UniProt P21397); experiment: Inhibition of the enzymatic activity of MAO-A; assay type: biochemical; settings: range of IC50 from inhibition rates at 100 μM and 10 μM; read-out: IC50, inhibition against the enzymatic activity of MAO-A
T2 construct: purchased Sigma Aldrich
T2 sequence (P21397 1-527): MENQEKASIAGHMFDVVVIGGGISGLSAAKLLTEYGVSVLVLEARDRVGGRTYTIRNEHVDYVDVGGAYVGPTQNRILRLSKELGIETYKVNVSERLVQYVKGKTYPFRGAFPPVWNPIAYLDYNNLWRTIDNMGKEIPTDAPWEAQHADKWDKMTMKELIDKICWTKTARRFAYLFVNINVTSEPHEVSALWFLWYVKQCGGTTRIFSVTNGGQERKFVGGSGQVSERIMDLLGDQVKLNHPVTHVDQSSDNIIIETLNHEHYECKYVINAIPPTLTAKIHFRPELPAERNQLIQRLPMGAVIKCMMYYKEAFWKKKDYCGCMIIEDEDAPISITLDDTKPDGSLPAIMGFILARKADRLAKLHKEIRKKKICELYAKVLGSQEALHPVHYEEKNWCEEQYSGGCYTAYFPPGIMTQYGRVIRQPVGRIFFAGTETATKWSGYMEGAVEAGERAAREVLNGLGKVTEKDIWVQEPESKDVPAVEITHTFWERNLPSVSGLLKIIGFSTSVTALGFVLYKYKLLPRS
Description: Inhibition Experiment Against the Enzymatic Activity of MAO-A (Monoamine Oxidase Type A)
1. Test kit: Amplex® Red Monoamine Oxidase Assay, Manufacturer: ThermoFisher
2. Reaction Buffer Solution: 50 mM PBS, pH 7.4
Protein: MAO-A, manufacturer: Sigma Aldrich
According to the method as described in the specification of the kit, MAO-A protein (15 μg/ml) and different concentrations of the test compound were pre-incubated at room temperature for 30 minutes, and then 200 μM p-tyramine hydrochloride, 1 U/mL HRP and 200 µM Amplex Red reagent were added to start the reaction. In kinetic mode, fluorescence signals were measured at Ex/Em=540/590 nm. The inhibition rate of each concentration group was calculated, wherein the ratio of fluorescence signal to reaction time ratio is the reaction rate, the vehicle group (DMSO) is the negative control, and the reaction buffer solution group (without enzymes and the compounds) is the blank control.
Percent inhibition rate (%)=(1-(reaction rate of each compound concentration group−reaction rate of the blank group)/(reaction rate of vehicle group−reaction rate of the blank group))*100.
According to the above method, the inhibition of the compound against the enzymatic activity of MAO-A was measured, and the range of IC50 was obtained according to the inhibition rates at 100 μM and 10 μM.

Row | Molecule | IC50 [1] [nM] | IC50 [2] [nM]
1 | CC1(C)Cc2cc(OC/C(=C/F)CN)ccc2C(=O)N1 [HC38-E, (E)-6-((2-(aminomethyl)-3-fluoroallyl)oxy)-3,3-dimethyl-3,4-dihydroisoquinolin-1(2H)-one hydrochloride] | 2.85 ± 0.3 | 
2 | NC/C(=C\F)COc1ccc(C(=O)Nc2ccccc2)cc1 [TM1-E, (E)-N-phenyl-4-((2-aminomethyl-3-fluoroallyl)oxy)-benzamide trifluoroacetate] | 1.6 ± 0.2 | 
3 | NC/C(=C\F)COc1ccc2c(c1)C(=O)CC2 [TM7-E, (E)-6-((2-aminomethyl-3-fluoroallyl)oxy)-2,3-dihydro-1-indenone trifluoroacetate] | 3 ± 0.7 | > 100000
4 | NC/C(=C/F)COc1ccc2c(c1)CCNC2=O [TM26-Z, (Z)-6-((2-aminomethyl-3-fluoroallyl)oxy)-3,4-dihydroisoquinolin-1(2H)-one trifluoroacetate] | 3.7 ± 0.8 | > 100000
5 | NC/C(=C\F)COc1ccc(-c2ncccn2)cc1 [TM39-E, (E)-2-(4-(2-pyrimidyl)phenoxymethyl)-3-fluoroallylamine trifluoroacetate] | 1.2 ± 0.2 | > 10000
6 | NC/C(=C\F)COc1ccc(C(=O)NC2CCOCC2)cc1 [TM76-E, (E)-N-(tetrahydro-2H-pyran-4-yl)-4-((2-aminomethyl-3-fluoroallyl)oxy)-benzamide trifluoroacetate] | 4.3 ± 0.6 | > 100000
7 | NC/C(=C/F)COc1ccc(C(=O)NCc2ccccn2)cc1 [TM112-Z, (Z)-4-((2-aminomethyl-3-fluoroallyl)oxy)-N-(pyridin-2-ylmethyl)benzamide trifluoroacetate] | 6.5 ± 1.8 | > 100000
8 | (E)-6-((2-(methylamino)-3-fluoroallyl)oxy)-2-methyl-3,4-dihydroisoquinolin-1(2H)-one trifluoroacetate [TM66-E] | 2 ± 0.4 | > 10000
9 | (E)-6-((2-(methylamino)-3-fluoroallyl)oxy)-3,3-dimethyl-3,4-dihydro-isoquinolin-1(2H)-one trifluoroacetate [TM38-E] | 4.7 ± 1.1 | > 100000
